From patent US11154550B2, “Treatment for neurodegeneration” (The University of Birmingham, priority 2012, dated 2021)
Entries after “also recorded” stand apart in the source; their conditions may differ. Counter-ions that a name gives are not always drawn. Like-named read-outs stand apart in the source and are kept apart here.

Experiments:
[1] = tested on: C7, KD2 and KD3 cell lines (SK-N-AS derived); assay: Cell cycle analysis (propidium iodide DNA content cytometry) in drug-treated C7, KD2 and KD3 cells; type: cell-based, human; conditions: 24 hours, up to 100 μM
Procedure: The C7 cell suspension were poured into sterile reagent reservoir labelled C7 and using multichannel pipette, 50 μl of cell suspension were dispense into each well. Then 50 μl of 2× culture media was added into each well. Plating was repeated for KD2 and KD3 cell lines. One plate of ‘zero day control’ was also prepared per experiment. On ‘zero day control’ plate, C7 cell line were plated into columns 1, 2, 7 and 8; KD2 cell line were plated into columns 3, 4, 9 and 10; KD3 cell line were plated into columns 5, 6, 11 and 12. Cells were plated at the same density for both ‘zero day control’ and experiment plates. The ‘zero day control’ plate remains untreated and is to be harvested just before the drugs were added into the treatment plates.
For each drug, 2× working solutions are prepared in culture medium and added to the cultures. The highest drug concentration is 100 μM and final solvent (H2O/DMSO) concentration in the cultures is 1%.
Using an 8-multichannel pipetor, 100 μl of 2× final drug concentrations were gently dispensed into the culture plates of C7, KD2 and KD3 cells. The time of the treatment was noted and cells were transferred back into 37° C./5% CO2 humidified incubator and were incubated for 24 hours.
The propidium iodide staining was used to determine the cell cycle phase of the cells based on DNA content.
To determine cut-offs for cells in different phases of the cell cycle, gate setting was performed based on the G1 and G2 peaks on the DNA content histogram. To determine the G1 and G2 peaks, the 3° total intensity in 20% histograms was analysed for each plate. Gates calculated were manually entered into the Acumen software.
(§1) The data exported and quantified included separately all cells and single cells. Single cells were further subcategorised into euploid, apoptotic and polyploid cells. Euploid cells were additionally classified into cells in G1 S and G2M phases of the cell cycle.

[2] = tested on: p21cip1; assay: p21cip1 immunostaining and cytometry in drug-treated C7, KD2 and KD3 cells; type: cell-based, human
Procedure: BSA was removed from the plates after 30 minutes incubation. To C7, KD2 and KD3 plates, 50 μl of primary antibody (p21; Abcam ab7903; 1/1000 in PBST) solution was added to each well. On ‘zero day control’ plate, 50 μl of the primary antibody was added to columns 1-6 while columns 7-12 received only 50 μl PBST on each well. These (columns 7-12) serve as a negative controls and will received secondary antibody only. Plates were then wrapped in cling film and were incubated at +4° C. overnight. The following day, p21 primary antibody solution was removed from the plates and cells were washed by adding 200 μl of PBST. This was repeated once (total of 2 washes) and all plates were then subjected to secondary antibody treatment. Secondary antibody solution was made using am IgG-FITC (Abcam ab6785; 1/200 in PBST) and 50 μl was added to each well. Plates were then wrapped in aluminium foil to protect from light and were incubated at +4° C. for 2 hours. The immunostaining was used to measure the content of p21^cip1 in the cells. Measurement was carried out using a laser triggering the 1° channel (bandpass filter 500-530 nm). The total fluorescence intensity from the 1° channel was used to compare total protein levels in the different cell populations defined above. Mean fluorescence intensity per cell (for the whole of the population) and mean fluorescence intensity per cell (for positive cells only) were analysed separately. Additionally the proportion of positive cells in each population was calculated.

[3] = tested on: C7, KD2 and KD3 cell lines (SK-N-AS derived); assay: Apoptotic fraction in p21 positive versus p21 negative cells of drug-treated C7, KD2 and KD3 cultures; type: cell-based, human
Procedure: as §1
The total fluorescence intensity from the 1° channel was used to compare total protein levels in the different cell populations defined above. Mean fluorescence intensity per cell (for the whole of the population) and mean fluorescence intensity per cell (for positive cells only) were analysed separately. Additionally the proportion of positive cells in each population was calculated.

[4] = tested on: p21; assay: p21 fluorescent immunocytochemistry followed by high content cytometry in drug-treated SHSY-5Y cells; type: cell-based, Human; conditions: neuroblastoma cells
Procedure: (§2) Human SHSY-5Y neuroblastoma cells were grown in DMEM:F12 supplemented with 10% FCS, penicillin (100 units/mil), streptomycin (100 μg/ml) and L-glutamine. The cells were plated for 24 hours into 96 well plates (5000 cells per well) before treatment with drugs. Each drug (doses applied in separate figures) and the control (DMSO) were applied to 8 technical replicate wells. After 24 hours treatment the cells were harvested by fixation in Glyofix and were post-fixed with ice cold 85% ethanol.
(§3) For P21^cip staining, the alcohol was aspirated and replaced with 100 μl/well blocking solution (5% BSA in PBST [1:1000 Triton X]) and incubated for 30 minutes at room temperature. After aspirating the blocking solution, 50 μl/well primary antibody solution (monoclonal P21 Abcam, 1:1000 in PBST) was added and incubated over night at 4° C. and PBST was applied as negative control. The next day, the cells were washed by twice aspirating 200 μl/well PBST. Afterwards, 50 μl/well secondary antibody solution (Anti-mouse IgG-FITC, Abcam, 1:200 in PBST) was added, protecting the solutions and plates from light, and incubated overnight at +4° C. The next day, the cells were washed twice with 200 μl/well PBST and stained with propidium iodide solution. […]. The composition of the propidium iodide staining solution was 0.1% Triton-X-100, […] propidium iodide, […] RNase A in PBS. The cells were incubated with the staining solution for 25 minutes at 37° C., and then DNA content based on total fluorescence was measured with a High Content Cytometer (Acumen). This allows rapid analysis of whole 96 well plates with resolution equivalent to a 20× microscope objective. The measurement of p21 content of cells and nuclei was based on the direct measurement of fluorescent intensity.

[5] = tested on: Human SHSY-5Y neuroblastoma cells; assay: High content cytometry apoptosis assay in drug-treated SHSY-5Y cells; type: cell-based; conditions: 24 hours; for cell death: up to 200 microM
Procedure: as §2, §3

[6] = all three cell lines (C7, KD2, KD3)
[7] = all cell lines (C7, KD2, KD3), 24 hours
[8] = G1 and G2 subpopulations, all three cell lines

SMILES: CCN(CC)CCCC(C)Nc1ccnc2cc(Cl)ccc12 (stereo not shown) [Chloroquine diphosphate]
- cell cycle effects [1, 6]: no significant effect
- cell cycle effects ([1]; all three cell lines (C7, KD2, KD3), listed as chloroquine diphosphate): no significant cell cycle regulatory effects
- proportion of protein positive cells ([2]; C7 cells): increased proportion
- p21 expression ([2]; C7 cells, G1 and G2M): significantly increased
- proportion of protein positive cells ([2]; KD2 and KD3 cells): increased
- p21 expression ([2]; KD2 cells, G2M phase): up-regulated
- p21 expression ([2]; KD3 cell line, G1): upregulation
- population of positive cells ([2]; all cell lines): increases
- p21 expression [2, 7]: up-regulates
- apoptosis in p21 positive cells relative to p21 negative cells [3]: significantly less likely to be apoptotic; also recorded: significantly reduced cell death

SMILES: Nc1ccc(S(=O)(=O)c2ccc(N)cc2)cc1 [Dapsone, 4-Aminophenyl sulfone]
- cell cycle effects [1, 6]: No cell cycle effects
- p21 expression [2, 7]: significantly up-regulates
- apoptosis in p21 positive cells relative to p21 negative cells [3]: significant reduction of apoptotic cells

SMILES: CCCC(CCC)C(=O)[O-].[Na+] [SV, Sodium Valproate]
- cell cycle effects ([1]; C7 cell line): slight G2 arrest; also recorded: not seen
- cell cycle effects ([1]; KD2 cell line): G1 inhibition; also recorded: slight G1 inhibitor effect
- cell cycle effects ([1]; KD3 cell line): G1 inhibition; also recorded: slight G1 inhibitor effect
- p21 protein expression ([2]; G2 sub-population of cells, 1 μM, 24 hours): significant upregulation
- p21 expression [2, 7]: modest
- apoptosis in p21 positive cells relative to p21 negative cells [3]: significant reduction of apoptotic fraction

SMILES: CN(C)C(=O)C(CCN1CCC(O)(c2ccc(Cl)cc2)CC1)(c1ccccc1)c1ccccc1 [Loperamide, Loperamide hydrochloride]
- cell cycle effects ([1]; all three cell lines (C7, KD2, KD3), hydrochloride): weak G1 inhibitor; also recorded: weak G1 cell cycle arrest
- p21 expression [2, 8]: induce
- p21 expression [2, 7]: up-regulates
- apoptosis in p21 positive cells relative to p21 negative cells ([3]; hydrochloride): significant reduction of apoptosis; also recorded: reduces apoptosis significantly
- apoptosis in p21 positive cells relative to p21 negative cells ([3]; listed as Loperamide hydrochloride, hydrochloride): significant reduction of apoptosis

SMILES: CC(=O)O[C@H]1C[C@@]2(C)[C@@H](C[C@@H](O)[C@H]3[C@@]4(C)CC[C@@H](O)[C@@H](C)[C@@H]4CC[C@@]32C)/C1=C(\CCC=C(C)C)C(=O)O [Fusidic acid]
- cell cycle effects [1, 6]: weak G2 inhibitor
- p21 expression [2, 7]: significant increase; also recorded: induces significant p21 expression
- apoptosis in p21 positive cells relative to p21 negative cells [3]: reduction of apoptosis

SMILES: O=C([O-])CCCc1ccccc1.[Na+] [4-PBA, Sodium 4-phenylbutyrate]
- cell cycle effects [1, 6]: no effects
- p21 expression ([2]; G2 cell population, all three cell lines): induces; also recorded: relatively small
- p21 expression ([2]; G2 cell population, all three cell lines, listed as Sodium 4-phenylbutyrate): induces
- apoptosis in p21 positive cells relative to p21 negative cells [3]: significantly reduced apoptosis

SMILES: CC(C(=O)O)c1ccc(-c2ccccc2)c(F)c1 (racemic) [Flurbiprofen]
- p21 expression ([4]; 0.01 and 0.1 microM, 24 hours): significantly increase
- p21 expression in the nuclear compartment ([4]; 0.01 and 0.1 microM, 24 hours): significantly increase
- expression and/or the functional activity of p21 [4]: increased
- apoptotic cell death ([5]; 0.01 and 0.1 microM): reduce apoptosis; also recorded: significantly reduce; also recorded: reduce apoptotic cell death

SMILES: C[C@@H](CN1CC(=O)NC(=O)C1)N1CC(=O)NC(=O)C1 [Dexrazoxane]
- expression and/or the functional activity of p21 [4]: increased
- p21 expression ([4]; up to 200 microM, 24 hours): significantly increase
- cell death [5]: reduce neuronal cells death; also recorded: significantly reduced cell death
- cell death ([5]; listed as Dexrasoxane): reduce apoptosis; also recorded: significantly reduced cell death

SMILES: Cc1cc(C2CCCCC2)n(O)c(=O)c1 [CPX, Ciclopirox Olamine]
- cell cycle effects [1, 6]: slight G1 cell cycle arrest
- p21 expression [2, 8]: induces significant p21 expression
- p21 expression [2, 7]: up-regulates
- apoptosis in p21 positive cells relative to p21 negative cells [3]: significant reduction of apoptotic cells; also recorded: reduced cell death
